For assay [1], the system named is Primary monocytes from HD or FMF patients. The assay is described as follows: IL-1β release by primary monocytes (ELISA of supernatant). The settings on record: LPS-primed; Ro 31-8220 100 μM or ATP 2.5 mM, 1.5 h. On the technique in general: In an ELISA, binding on a coated surface is turned into a signal by an enzyme label.
Excerpt: Blood was drawn in heparin-coated tubes and kept at room temperature overnight. The next day, peripheral blood mononuclear cells (PBMCs) were isolated by density-gradient centrifugation using Lymphocyte Separation Medium (Eurobio) [23]. Monocytes were isolated from PBMCs by magnetic selection using CD14 MicroBeads (Miltenyi Biotec) [24] and the AutoMACS Pro Separator (Miltenyi Biotec) following manufacturer's instructions. Monocytes were enumerated in the presence of a viability marker (propidium iodide, 10 μg/ml) by flow cytometry (BD Accuri C6 Flow Cytometer®) [25].
When indicated, monocytes were incubated for 3 hours in the presence of LPS (10 ng/ml, Invivogen). […] Following the incubation, cells were centrifuged and supernatants were collected.
Levels of IL-1β in monocyte supernatants were quantified by ELISA (R&D Systems). […] Three technical replicates per conditions were done.
The target of assay [2] is PKCβI (Homo sapiens, UniProt P05771). The settings on record: cell-free assays where stated; read-out: IC50 for PKCβI (PKCβ1); cited from earlier work.
Assay [3] concerns the target PKCβII (Homo sapiens, UniProt P05771). To be noted: cell-free assays where stated; read-out: IC50 for PKCβII (PKCβ2); cited from earlier work.
Assay [4] deals with PKCγ (Homo sapiens, UniProt P05129). To be noted: cell-free assays where stated; cited from earlier work.
Assay [5] deals with PKC. The settings on record: cited from earlier work.
The target in assay [6] is PKCα (Homo sapiens, UniProt P17252). The settings on record: cell-free assays where stated; cited from earlier work.
Assay [7] has as its system PKA. The settings on record: cited from earlier work.
Assay [8] relates to apamin-sensitive K+ channels. To be noted: cited from earlier work.
Assay [9] relates to PKC (Rat brain). The settings on record: cited from earlier work.
The target of assay [10] is PKCδ (Homo sapiens, UniProt Q05655). To be noted: cell-free assays where stated; cited from earlier work.
The target of assay [11] is PKCβ (Homo sapiens, UniProt P05771). To be noted: cell-free assays where stated; cited from earlier work.
Assay [12] addresses T1, PKCμ (Homo sapiens, UniProt Q15139).
T1 sequence (Q15139 1-912): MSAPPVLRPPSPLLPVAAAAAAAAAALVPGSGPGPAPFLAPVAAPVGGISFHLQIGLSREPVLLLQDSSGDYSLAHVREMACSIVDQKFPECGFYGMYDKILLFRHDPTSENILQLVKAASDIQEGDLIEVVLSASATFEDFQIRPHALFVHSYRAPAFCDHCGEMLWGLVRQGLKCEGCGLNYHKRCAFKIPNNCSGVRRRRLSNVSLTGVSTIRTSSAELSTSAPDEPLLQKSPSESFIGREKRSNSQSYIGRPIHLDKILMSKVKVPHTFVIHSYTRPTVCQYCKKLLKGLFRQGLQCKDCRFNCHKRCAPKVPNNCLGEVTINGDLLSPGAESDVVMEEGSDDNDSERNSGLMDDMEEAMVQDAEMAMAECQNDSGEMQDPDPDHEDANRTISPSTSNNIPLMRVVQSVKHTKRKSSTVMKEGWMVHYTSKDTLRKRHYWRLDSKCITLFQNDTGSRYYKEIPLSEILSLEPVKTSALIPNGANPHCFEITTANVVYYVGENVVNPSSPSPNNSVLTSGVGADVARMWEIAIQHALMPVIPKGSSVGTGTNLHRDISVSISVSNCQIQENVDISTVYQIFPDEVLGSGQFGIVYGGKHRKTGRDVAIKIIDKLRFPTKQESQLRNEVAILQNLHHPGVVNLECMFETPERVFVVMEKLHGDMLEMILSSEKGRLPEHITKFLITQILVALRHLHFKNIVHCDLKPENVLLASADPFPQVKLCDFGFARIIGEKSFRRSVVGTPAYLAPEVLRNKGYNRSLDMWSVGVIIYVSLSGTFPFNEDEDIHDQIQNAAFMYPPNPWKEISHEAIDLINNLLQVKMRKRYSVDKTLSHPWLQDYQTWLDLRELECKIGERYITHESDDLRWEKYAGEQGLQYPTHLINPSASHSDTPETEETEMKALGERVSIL
To be noted: cited from earlier work.

Assay [13] addresses T2, PKCζ (Homo sapiens, UniProt Q05513).
T2 sequence (Q05513 1-592): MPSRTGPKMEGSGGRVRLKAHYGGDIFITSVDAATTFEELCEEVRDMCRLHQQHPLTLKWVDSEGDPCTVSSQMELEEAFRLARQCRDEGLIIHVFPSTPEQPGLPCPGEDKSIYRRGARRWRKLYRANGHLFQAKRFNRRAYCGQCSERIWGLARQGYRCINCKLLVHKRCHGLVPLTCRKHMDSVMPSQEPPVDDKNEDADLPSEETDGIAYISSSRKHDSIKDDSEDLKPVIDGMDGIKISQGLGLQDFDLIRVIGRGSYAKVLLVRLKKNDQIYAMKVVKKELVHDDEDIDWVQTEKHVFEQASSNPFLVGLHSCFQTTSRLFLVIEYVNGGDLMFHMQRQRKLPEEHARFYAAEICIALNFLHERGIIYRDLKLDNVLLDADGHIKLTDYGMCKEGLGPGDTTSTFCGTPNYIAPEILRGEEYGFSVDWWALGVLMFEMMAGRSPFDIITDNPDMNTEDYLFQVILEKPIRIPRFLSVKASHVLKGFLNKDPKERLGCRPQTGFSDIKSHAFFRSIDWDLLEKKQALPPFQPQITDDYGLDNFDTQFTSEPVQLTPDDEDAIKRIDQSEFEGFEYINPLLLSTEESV
The settings on record: cited from earlier work.

Assay [14] relates to PI3K. To be noted: cited from earlier work.
Assay [15] has as its target PKN2 (Homo sapiens, UniProt Q16513). To be noted: cited from earlier work.
For assay [16], the target named is T3, PKCε (Homo sapiens, UniProt Q02156).
T3 sequence (Q02156 1-737): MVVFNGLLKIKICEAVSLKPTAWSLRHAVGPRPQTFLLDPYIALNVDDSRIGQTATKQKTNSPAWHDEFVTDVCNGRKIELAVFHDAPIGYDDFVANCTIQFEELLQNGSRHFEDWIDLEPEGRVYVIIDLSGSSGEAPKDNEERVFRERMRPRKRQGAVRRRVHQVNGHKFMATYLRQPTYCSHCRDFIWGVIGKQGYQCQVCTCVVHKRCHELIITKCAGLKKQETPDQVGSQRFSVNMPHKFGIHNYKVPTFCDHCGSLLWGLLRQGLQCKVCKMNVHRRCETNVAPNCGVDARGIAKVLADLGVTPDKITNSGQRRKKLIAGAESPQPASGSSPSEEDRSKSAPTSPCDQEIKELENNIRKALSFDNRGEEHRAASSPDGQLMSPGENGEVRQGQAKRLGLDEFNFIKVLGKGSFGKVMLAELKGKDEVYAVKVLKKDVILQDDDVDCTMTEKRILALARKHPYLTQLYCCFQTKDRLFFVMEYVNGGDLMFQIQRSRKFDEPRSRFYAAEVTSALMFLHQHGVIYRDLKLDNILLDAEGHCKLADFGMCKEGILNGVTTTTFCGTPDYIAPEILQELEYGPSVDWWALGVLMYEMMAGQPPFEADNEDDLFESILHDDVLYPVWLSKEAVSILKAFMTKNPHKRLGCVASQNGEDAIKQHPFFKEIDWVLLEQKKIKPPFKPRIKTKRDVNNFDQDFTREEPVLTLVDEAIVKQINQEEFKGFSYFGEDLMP
To be noted: cell-free assays where stated; cited from earlier work.

In assay [17] the target is PKCθ (Homo sapiens, UniProt Q04759). The settings on record: cell-free assay; cited from earlier work.
The subject of assay [18] is Primary monocytes from HD or FMF patients. Kind of assay: Monocyte cell death by propidium iodide incorporation. Format: cell-based, human. To be noted: for difference in AUC of cell death kinetics between FMF and HD monocytes (in words): UCN-01 12.5 μM unprimed, or LPS then nigericin 5 μM. On the procedure:
Propidium iodide incorporation was monitored every 5 minutes from 5 minutes to 105 minutes post-UCN-01/nigericin stimulation using a fluorimeter. Cell death was calculated using TX-100-treated cells (100% cell death) and normalized cell death kinetics are presented (A, D). Each symbol corresponds to the average values of the normalized cell death of monocytes from 17 HD and […]. Mean and standard deviations are shown at each time point. […] (C-G) The time post-treatment needed to reach 20% monocytes cell death was calculated from each HD (n=17) and FMF patients (n=13) cell death kinetics. […] The bar represents the mean.
Cell death was determined by measuring propidium iodide incorporation/fluorescence at 1 h30 post stauroporin addition. […] The bar represents the mean. Cell death was normalized using TX-100-treated cells (100% cell death). With a cell death threshold set at 10% (horizontal line), this assay discriminates healthy donors from FMF patients.
Three technical replicates per conditions were done.

[19] abbreviates: LPS 10 ng/ml 3 h, then nigericin 5 μM.

Molecules are shown by their SMILES. pIC50, pKi: −log10 of the molar value.

Consider eleven compounds from patent US20200264191A1, “METHODS AND KITS FOR DIAGNOSIS OF FAMILIAL MEDITERRANEAN FEVER” (INSERM (Institut National de la Santé et de la Recherche …, priority 2017, published 2020).

The pIC50 is the negative decadic logarithm of the IC50, by convention in mol/L. What is called pKi is the negative decadic logarithm of the Ki, by convention in mol/L.

Sequence of PKCβI (P05771 whole entry): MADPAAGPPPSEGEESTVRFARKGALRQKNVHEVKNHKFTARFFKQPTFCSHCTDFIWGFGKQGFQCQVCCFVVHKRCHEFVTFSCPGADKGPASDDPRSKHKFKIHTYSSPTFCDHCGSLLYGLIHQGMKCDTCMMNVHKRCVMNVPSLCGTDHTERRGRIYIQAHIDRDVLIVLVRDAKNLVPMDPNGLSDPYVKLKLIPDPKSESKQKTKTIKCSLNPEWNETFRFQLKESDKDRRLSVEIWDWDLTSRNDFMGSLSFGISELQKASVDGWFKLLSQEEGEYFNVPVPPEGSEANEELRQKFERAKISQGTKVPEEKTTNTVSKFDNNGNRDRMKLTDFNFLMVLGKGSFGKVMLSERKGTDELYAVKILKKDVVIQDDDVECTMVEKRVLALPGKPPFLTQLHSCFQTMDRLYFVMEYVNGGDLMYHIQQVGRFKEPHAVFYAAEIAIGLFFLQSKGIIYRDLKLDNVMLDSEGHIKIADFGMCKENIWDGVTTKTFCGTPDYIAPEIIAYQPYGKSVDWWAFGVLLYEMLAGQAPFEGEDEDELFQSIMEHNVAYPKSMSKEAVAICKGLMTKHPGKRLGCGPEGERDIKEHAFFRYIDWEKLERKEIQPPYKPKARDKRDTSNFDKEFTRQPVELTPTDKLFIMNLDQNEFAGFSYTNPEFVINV
Sequence of PKCβII (P05771 1-673 isoform P05771-2): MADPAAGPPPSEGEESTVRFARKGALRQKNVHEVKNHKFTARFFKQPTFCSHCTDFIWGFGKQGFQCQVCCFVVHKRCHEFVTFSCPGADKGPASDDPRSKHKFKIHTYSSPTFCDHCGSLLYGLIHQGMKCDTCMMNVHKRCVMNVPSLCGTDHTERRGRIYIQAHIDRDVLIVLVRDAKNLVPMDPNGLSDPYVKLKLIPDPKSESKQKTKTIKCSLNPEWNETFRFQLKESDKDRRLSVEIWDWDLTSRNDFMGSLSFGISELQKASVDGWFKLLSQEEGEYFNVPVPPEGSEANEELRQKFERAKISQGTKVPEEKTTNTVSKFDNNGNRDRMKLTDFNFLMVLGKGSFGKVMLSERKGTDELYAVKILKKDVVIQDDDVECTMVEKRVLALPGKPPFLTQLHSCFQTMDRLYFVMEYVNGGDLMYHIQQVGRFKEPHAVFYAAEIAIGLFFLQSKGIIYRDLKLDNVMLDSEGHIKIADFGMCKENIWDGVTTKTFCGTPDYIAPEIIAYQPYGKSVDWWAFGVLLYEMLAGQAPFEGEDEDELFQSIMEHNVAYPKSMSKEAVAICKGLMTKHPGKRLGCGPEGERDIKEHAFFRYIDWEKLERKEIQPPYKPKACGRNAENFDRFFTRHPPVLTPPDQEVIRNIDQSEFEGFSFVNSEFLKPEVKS
Sequence of PKCθ (Q04759 whole entry): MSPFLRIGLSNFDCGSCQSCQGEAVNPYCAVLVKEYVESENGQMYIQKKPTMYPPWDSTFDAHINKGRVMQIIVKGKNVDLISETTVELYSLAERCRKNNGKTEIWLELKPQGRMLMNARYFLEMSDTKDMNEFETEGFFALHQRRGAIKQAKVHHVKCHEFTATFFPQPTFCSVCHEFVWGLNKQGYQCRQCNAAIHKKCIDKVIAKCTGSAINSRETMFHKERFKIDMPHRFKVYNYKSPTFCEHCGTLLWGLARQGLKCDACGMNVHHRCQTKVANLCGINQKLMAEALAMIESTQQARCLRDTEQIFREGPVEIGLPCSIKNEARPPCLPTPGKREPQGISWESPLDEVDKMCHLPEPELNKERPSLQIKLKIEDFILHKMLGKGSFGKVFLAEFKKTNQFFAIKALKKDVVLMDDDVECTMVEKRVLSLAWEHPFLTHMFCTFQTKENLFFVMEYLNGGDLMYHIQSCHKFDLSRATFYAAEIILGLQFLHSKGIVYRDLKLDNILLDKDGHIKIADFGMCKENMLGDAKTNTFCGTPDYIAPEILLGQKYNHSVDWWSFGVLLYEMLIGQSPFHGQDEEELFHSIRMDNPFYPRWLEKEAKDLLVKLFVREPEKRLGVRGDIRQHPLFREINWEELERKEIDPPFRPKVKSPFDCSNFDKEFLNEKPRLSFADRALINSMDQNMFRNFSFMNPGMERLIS
Sequence of PKCδ (Q05655 whole entry): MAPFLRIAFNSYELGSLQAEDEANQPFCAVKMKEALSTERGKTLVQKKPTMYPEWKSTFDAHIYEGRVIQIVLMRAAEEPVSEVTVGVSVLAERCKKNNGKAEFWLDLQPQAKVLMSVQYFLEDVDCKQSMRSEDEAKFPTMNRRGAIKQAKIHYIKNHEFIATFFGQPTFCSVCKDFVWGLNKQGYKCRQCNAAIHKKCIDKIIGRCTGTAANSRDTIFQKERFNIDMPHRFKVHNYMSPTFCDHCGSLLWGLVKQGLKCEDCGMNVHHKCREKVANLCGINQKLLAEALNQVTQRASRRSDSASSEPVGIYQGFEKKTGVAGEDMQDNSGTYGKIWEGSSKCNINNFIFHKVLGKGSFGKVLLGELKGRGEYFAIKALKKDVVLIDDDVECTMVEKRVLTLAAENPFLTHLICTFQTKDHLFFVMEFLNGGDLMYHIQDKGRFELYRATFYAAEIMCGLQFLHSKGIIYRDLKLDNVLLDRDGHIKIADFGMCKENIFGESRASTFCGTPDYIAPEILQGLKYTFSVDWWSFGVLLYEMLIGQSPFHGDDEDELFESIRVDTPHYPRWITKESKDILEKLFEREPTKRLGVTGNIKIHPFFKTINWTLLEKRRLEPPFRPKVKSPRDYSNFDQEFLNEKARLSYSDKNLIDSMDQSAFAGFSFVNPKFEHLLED
Sequence of PKCβ (P05771 whole entry, species assumed): as the sequence (P05771 whole entry) above

Turning to `Nc1ncnc2c1ncn2[C@@H]1O[C@H](COP(=O)(O)OP(=O)(O)OP(=O)(O)O)[C@@H](O)[C@H]1O` [ATP], the “difference in IL-1β release between FMF and HD monocytes (in words)” value in assay [1] is “did not observe any difference”.

With `CN(C)CCCn1cc(C2=C(c3c[nH]c4ccccc34)C(=O)NC2=O)c2ccccc21` [Bisindolylmaleimide I], the pIC50 in assay [2] was 7.77; in assay [3] it was 7.80; in assay [4], 7.70; in assay [6], 7.70. In assay [5], the “selectivity for PKC as compared to EGFR, PDGFR and insulin receptor” value is recorded as “more than 3000 fold”.

In the case of `O=c1ccc2ccc(O)c(O)c2o1` [Daphnetin], the figures for the pIC50 in assay [7] and in [5] were 5.03 and 4.60, respectively.

As to `Cc1cc(N)c2ccccc2[n+]1CCCCCCCCCC[n+]1c(C)cc(N)c2ccccc21` [Dequalinium Chloride], the results for the pIC50 in assay [8] and in assay [5] were 5.96 and 4.74 to 5.15, respectively.

Consider `Cn1c2ccccc2c2c3c(c4c5ccccc5n(CCC#N)c4c21)CNC3=O` [Go6976], for which, in assay [9], the pIC50 was 8.10.

For `COc1ccc2c(c1)c(C1=C(c3c[nH]c4ccccc34)C(=O)NC1=O)cn2CCCN(C)C` [Go 6983], the negative logarithm of the IC50 (pIC50) in assay [10] is 8.00; in assay [11], 8.15; in assay [4], 8.22; in assay [6] it was 8.15. Also, in [12], the “activity on PKCμ (in words)” value is “inactive”. Also, in assay [13], the “activity on PKCζ (in words)” value was “less potent”.

For the compound `O=c1c(O)c(-c2ccc(O)c(O)c2)oc2cc(O)cc(O)c12` [Quercetin], the negative-log IC50 (pIC50) in [14] was 5.27 to 5.62.

With `CS(=O)(=O)O.Cn1cc(C2=C(c3cn(CCCSC(=N)N)c4ccccc34)C(=O)NC2=O)c2ccccc21` [Ro 31-8220 Mesylate], the “efficacy to inhibit PKN2 (in words)” value in [15] is reported as “low efficacy”. In addition, the negative-log IC50 (pIC50) in assay [2] is 7.62; in assay [16], 7.62; in assay [3], 7.85; in assay [4], 7.57; in [6], 8.30. Moreover, the “difference in IL-1β release between FMF and HD monocytes (in words)” value in assay [1] is “same trends”.

In the case of `CN1CCN(c2nc(C3=C(c4c[nH]c5ccccc45)C(=O)NC3=O)c3ccccc3n2)CC1` [Sotrastaurin], the negative-log Ki (pKi) in assay [17] was 9.66. For the same compound, in assay [13], the “activity on PKCζ (in words)” value was “inactive”.

With `CN[C@@H]1C[C@H]2O[C@@](C)([C@@H]1OC)n1c3ccccc3c3c4c(c5c6ccccc6n2c5c31)C(=O)N[C@H]4O` [UCN-01, 7-hydroxystaurosporine], the “difference in AUC of cell death kinetics between FMF and HD monocytes (in words)” value in [18] is on record as “statistical difference”. The “time to reach 20% cell death, FMF patients' monocytes” value in assay [18] (UCN-01 12.5 μM, no priming) is “less than 50 minutes”. Also, the pIC50 in [16] is 6.28.

Turning to `CO[C@@H]1C[C@@H](C[C@H]2CC[C@H](C)[C@H]([C@@H](C)C(=O)O)O2)O[C@]2(O[C@](C)([C@H]3CC[C@@](C)([C@@H]4O[C@@H]([C@H]5O[C@@](O)(CO)[C@H](C)C[C@@H]5C)C[C@@H]4C)O3)C[C@H]2C)[C@@H]1C` [nigericin], in [18] (setting [19]), the “time to reach 20% cell death, FMF patients' monocytes” value worked out at 74 min and the “time to reach 20% cell death, monocytes from healthy controls” value is 72 min. In addition, the “difference in AUC of cell death kinetics between FMF and HD monocytes (in words)” value in [18] is on record as “did not demonstrate any statistical difference”.
